Measured values from patent publication US12053465B2, “KCC2 expression enhancing compounds and uses thereof” (Whitehead Institute for Biomedical Research, priority 2017, dated 2024).

What was measured:
[1] = tested on: KCC2 expression (KCC2-2A-luciferase reporter); assay: KCC2-2A-luciferase reporter compound screening with RTT KCC2 reporter neurons; format: cell-based, human; conditions: MECP2-null RTT human KCC2 reporter neurons; LINCS, SMART, ICCB libraries; Luc/CTG normalized to in-plate DMSO; hit = B score >3
Protocol: The RTT KCC2-2A-luciferase reporter neurons were treated with the test compounds from the LINCS kinase inhibitor library and IRSF SMART compound library and incubated before being lysed. The cell lysate was divided into two parts to measure luciferase signal (KCC2 translation) and Cell-Titer Glow (CTG, amount of ATP). The luciferase signal was normalized to CTG for each well, and the Luc/CTG ratio was normalized to the in-plate DMSO negative control to calculate fold change ratio.
Additional screens for reporter activation in the MECP2-null RTT human KCC2 reporter neurons (isogenic to the WT reporter cells used above) were performed with the LINCS and SMART libraries as well as the ICCB known bioactive library and identified hits as compounds with B score >3.
The cells were dissociated with Accutase and resuspended in 10 ml neuronal differentiation medium to count cells. The cells were then diluted to the final density of 200,000 to 500,000 cells/ml. Matrigel was added to the cell suspension at a dilution ratio of 1:300 to promote cell adhesion after plating. AraC was added to cell suspension at the concentration of 2 μM to inhibit cell division. The cells were plated into 96-well plates with an automated cell seeding machine using the following protocol: The neuron flask was washed with PBS. The neurons were digested off the plate with Accutase for 30 minutes at 37° C. Next, the dissociated cells were collected and spun down at 750 rpm for 5 minutes. The cell pellet was dissociated by gentle trituration with P1000 pipet and the cells were resuspended with 10 ml of neuronal medium. Then, the cells were filtered through a 40 μm cell strainer (Falcon) to get rid of clumps. The resulting single-cell suspension was counted using a Countess automated cell counter (Invitrogen Countess Automated Cell Counter, Catalog no. C10227). The neurons were resuspended with neuronal medium to 10× of the destination density (100,000 cells to 400,000 cells per ml). The cells were plated with a multichannel pipette, or proceeded to the machine-plating protocol described below:
The day after cell seeding, small molecule compounds from the IRSF (International Rett Syndrome Foundation) library were prepared at a concentration of 1 mM and dispensed into a blank V-bottomed test plates at 2 μl per well. Compound solvent DMSO was included in every plate as control. Using a liquid handling robot, about 80 μl of culture medium were discarded. Neuronal medium in the volume of 200 μl was added to the V-bottom test plate that contained 2 μl of 1 mM compounds, and mixed with compounds by pipetting up-and-down 3 times. The medium that contained the 10 μM compounds was then applied to the neuronal cell culture and incubated for 2 weeks before cell lysis and luciferase assay were performed.
(§1) The cells were dissociated with Accutase, resuspended in 10 ml neuronal differentiation medium to count cells. the final cell seeding density was 20 k-40 k cells per well for 96-well plates, and ˜10 k cells per well for 384-well plates. Matrigel was added to the cell suspension at a dilution ratio of 1:300 to promote cell adhesion after plating. AraC were added to the cell suspension at the concentration of 0.5 μM to inhibit astroglial cell division. The cells were dispensed into 96-well or 384-well plates (Coming) using a BioTek EL406 plate dispenser. […] The neurons were incubated with the compounds at 37° C./5% CO2 for a week before the luciferase assay.
The cells used for luciferase assay were KCC2 reporter neurons differentiated for 4 weeks, and treated with drug in 96-well format for 2 weeks. Cell density was between 20 k-40 k cells per well.
On the day of the luciferase assay, the cells were washed with PBS for two times, and 100 μl of cell lysis buffer was applied to the washed cells. The cell plates were transferred to a rocker to shake for 10 minutes in order to fully lyse the cells.

[2] = tested on: KCC2 expression (KCC2-2A-luciferase reporter); assay: KCC2-2A-luciferase reporter compound screening with wild type KCC2 reporter neurons; format: cell-based; conditions: WT human KCC2 reporter neurons; LINCS 0.5 μM, IRSF/SMART and ICCB 10 μM, one week; Luc/CTG normalized to in-plate DMSO; hit = B score >3
Text: In addition, CRISPR/Cas9 genome editing technology was utilized to insert a 2A-luciferase reporter gene directly before the stop codon of the endogenous KCC2 locus in human ES cells, thus creating wild type (WT) cells isogenic to the MECP2-null RTT human KCC2 reporter neurons. KCC2 expression reporter human neurons were differentiated from the gene-targeted ES cells and utilized as the substrate for unbiased compound screening (FIG. 6A; see also FIG. 1A).
Gene-targeted KCC2 reporter cells were used in a HTS pipeline to screen for small molecule compounds that enhance KCC2 gene expression (FIG. 1B; note that reporter neurons were adapted to 384 well format for some screens, and the same workflow was used both for WT KCC2 reporter neurons and RTT KCC2 reporter neurons). Six replicate screens were performed in WT KCC2 reporter neurons using the LINCS and SMART libraries as well as the ICCB known bioactive library (FIG. 6B).
as §1
For some screens, on the day of the luciferase assay, the cells were washed with PBS three times using a BioTek EL406 plate washer. Cell lysis buffer (Promega, E1941, 1:5 diluted with water) was added at a volume of 100 μl per well for 96-well plates and 30 μl per well for 384-well plates, and incubated at room temperature for 10 minutes to lyse the cells. A fraction of the cell lysate (30 ul for 96-well, 5 ul for 384-well) was transferred to a new white, opaque plate and Cell Titer-Glo (CTG, Promega, G7572, diluted 2:5 in water) was added and incubated for 20 minutes at room temperature. CTG measures cellular ATP levels as a surrogate for cell viability. The reporter luciferase signal was assayed in the original source plate using Bright-Glo reagent per the manufacturer's protocol (Promega, E1501, 10 ul for 96-well plates, 3 ul for 384-well plates). Assay readouts were performed on a Tecan M1000 Infinite plate reader. For data analysis, the luciferase signal was normalized to the CTG signal to control for number of live cells per well. The Luc/CTG ratio data were then normalized to the in-plate DMSO control to calculate the signal induction fold change. Screening data were processed with CellHTS2 software package to calculate B-score (94)

[3] = tested on: KCC2 expression; assay: Western blot of KCC2 in cultured human RTT neurons; format: cell-based; conditions: for KCC2 expression: cultured human RTT neurons, Western blot
Protocol: Protein samples were collected from cultured brain slices or cultured neurons in 12-well format with RIPA lysis buffer (in mM: 150 NaCl, 25 Tris-HCl, 1 EDTA, 1% NP-40, 1% sodium deoxycholate, 0.1% SDS, with protein kinase inhibitor and protease inhibitor, pH adjusted to 7.6). A sonication step was applied to homogenize tissue and extract protein, followed by a 10 minute centrifugation at 4° C. […] The PVDF membrane was blocked for 30 minutes with 5% milk in TBS+0.1% Tween 20 (TBST), and incubated overnight at 4° C. with primary antibodies diluted in TBST-milk at the following concentrations: KCC2 (1:2000, Millipore), NKCC1 (1:1000, Iowa Hybridoma bank), α-Tubulin (1:4000, Abcam), GAPDH (1:3000, Abcam), Actin (1:2000, Sigma Aldrich #A2066). The membrane was rinsed with TBST three times to wash off excess antibodies, and then incubated in secondary HRP antibodies in TBST-milk at 1:5000 concentration.
The PVDF membrane was then stripped using the Re-blot plus strong solution (Millipore), and re-immunoblotted for NKCC1 (˜150 kDa) to acquire KCC2/NKCC1 ratio. The area and intensity of protein signal was determined using ImageJ. The relative KCC2 and NKCC1 expression were calculated by normalizing protein signal to GAPDH or Tubulin loading control.

[4] = tested on: immature mouse neurons; assay: Gramicidin-perforated patch recording of EGABA in DIV6-7 immature mouse neurons; format: cell-based
[5] = tested on: KCC2 expression; assay: Western blot of KCC2 in cultured WT human neurons; format: cell-based; conditions: WT neurons; 0.03 μM

| Compound | B Score [1] | B Score [2] | further results |
| --- | --- | --- | --- |
| O=c1cc(-c2ccccc2)oc2c(O)c(O)ccc12 [7,8-Dihydroxyflavone] | 4.01 | 4.01 | – |
| COCc1nc2c([nH]1)c(=O)n(C)c(=O)n2CC(C)C [8-methoxymethyl-IBMX, 8-(Methoxymethyl)-1-methyl-3-(2-methylpropyl)-7H-purine-2,6-dione] | 4.8 | 4.8 | – |
| O=C(Nc1ccc(S(=O)(=O)C(F)(F)F)cc1)C1=CCN(c2ncccc2C(F)(F)F)CC1 [A784168] | – | – | effect on Piperine-induced KCC2 expression ([3]; RTT neurons, co-application with Piperine): eliminated the KCC2-inducing effect of Piperine |
| NC(=O)C1CCCc2c1[nH]c1ccc(Cl)cc21 (stereo not drawn) [EX-527] | – | – | effect on Resveratrol-induced KCC2 expression enhancement ([3]; RTT neurons, additional application to Resveratrol): blocked KCC2 expression enhancement |
| COc1ccc(C(=O)Nc2sc3c(c2C(N)=O)CCC3)cc1OC [FLT3 Inhibitor-1, 2-(3,4-dimethoxybenzamido)-5,6-dihydro-4H-cyclopenta[b]thiophene-3-carboxamide] | – | – | KCC2 expression [3]: significant enhancement of KCC2 expression |
| COc1cc2c(Oc3ccc(NC(=O)C4(C(=O)Nc5ccc(F)cc5)CC4)cc3F)ccnc2cc1OCCCN1CCOCC1 [Foretinib, N1′-[3-fluoro-4-[[6-methoxy-7-(3-morpholinopropoxy)-4-quinolyl]oxy]phenyl]-N1-(4-fluorophenyl)cyclopropane-1,1-dicarboxamide] | 4.05 | 4.05 | – |
| O=C1Nc2ccccc2/C1=C1/Nc2ccccc2C1=O [Indirubin, (3Z)-3-(3-Oxo-1,3-dihydro-2H-indol-2-ylidene)-1,3-dihydro-2H-indol-2-one] | 3.73 | 3.73 | – |
| COC1=CC(=O)O[C@@H](/C=C/c2ccc3c(c2)OCO3)C1 [Methysticin, (2R)-2-[(E)-2-(1,3-Benzodioxol-5-yl)ethenyl]-4-methoxy-2,3-dihydropyran-6-one] | 7.17 | 7.17 | – |
| Cc1nc2n(c(=O)c1CCN1CCC(c3noc4cc(F)ccc34)CC1)CCCC2O (stereo not drawn) [Paliperidone, 9-Hydroxyrisperidone] | – | 11.03 | – |
| CC(C)(O)[C@H]1O[C@H]2CC[C@@]3(C)[C@@](O)(CC[C@H]4Cc5c([nH]c6ccccc56)[C@@]43C)C2=CC1=O [Paxilline, (2R,4bS,6aS,12bS,12cR,14aS)-5,6,6a,7,12,12b,12c,13,14,14a-Decahydro-4b-hydroxy-2-(1-hydroxy-1-methylethyl)-12b,12c-dimethyl-2H-pyrano[2″,3″:5',6']benz[1',2':6,7]indeno[1,2-b]indol-3(4bH)-one] | 4.1 | 4.1 | – |
| CN(C)c1ccc(C=C2C(=O)Nc3ccccc32)cc1 [SU-4312, 3-(4-Dimethylaminobenzylidenyl)-2-indolinone] | – | 3.55 | – |
| C[C@H](NCc1ccc(OCc2cccc(F)c2)cc1)C(N)=O [Safinamide, (2S)-2-[[4-[(3-fluorophenyl)methoxy]phenyl]methylamino] propanamide] | 4.82 | 4.82 | – |
| Nc1cccc(-c2cc3c(Oc4cccc(O)c4)ncnc3[nH]2)c1 [TWS-119, 3-[6-(3-Amino-phenyl)-7H-pyrrolo[2,3,-d]pyrimidin-4-yloxy]-phenol] | 3.64 | – | KCC2 expression [3]: significant increase in KCC2 expression; EGABA after treatment ([4]; DIV6-7 immature mouse neurons, untreated about −50 mV): about −70 mV; significant hyperpolarizing shift in EGABA ([4]; DIV6 cultured immature mouse neurons): induces significant hyperpolarizing shift in EGABA; increase of KCC2 expression [5]: more than two-fold |
